Reference: patent publication US9884063B2, “Amido-substituted azole compounds” (Bayer Pharma Aktiengesellschaft, priority 2014, dated 2018)

molecular target: T1, TNKS1 (Homo sapiens, UniProt O95271); test: Modified TNKS1 Assay 2 (auto-parsylation, [3H]-NAD+ SPA); assay type: biochemical; conditions: 6 nM TNKS1, 96 well
T1 sequence (O95271 1-1327): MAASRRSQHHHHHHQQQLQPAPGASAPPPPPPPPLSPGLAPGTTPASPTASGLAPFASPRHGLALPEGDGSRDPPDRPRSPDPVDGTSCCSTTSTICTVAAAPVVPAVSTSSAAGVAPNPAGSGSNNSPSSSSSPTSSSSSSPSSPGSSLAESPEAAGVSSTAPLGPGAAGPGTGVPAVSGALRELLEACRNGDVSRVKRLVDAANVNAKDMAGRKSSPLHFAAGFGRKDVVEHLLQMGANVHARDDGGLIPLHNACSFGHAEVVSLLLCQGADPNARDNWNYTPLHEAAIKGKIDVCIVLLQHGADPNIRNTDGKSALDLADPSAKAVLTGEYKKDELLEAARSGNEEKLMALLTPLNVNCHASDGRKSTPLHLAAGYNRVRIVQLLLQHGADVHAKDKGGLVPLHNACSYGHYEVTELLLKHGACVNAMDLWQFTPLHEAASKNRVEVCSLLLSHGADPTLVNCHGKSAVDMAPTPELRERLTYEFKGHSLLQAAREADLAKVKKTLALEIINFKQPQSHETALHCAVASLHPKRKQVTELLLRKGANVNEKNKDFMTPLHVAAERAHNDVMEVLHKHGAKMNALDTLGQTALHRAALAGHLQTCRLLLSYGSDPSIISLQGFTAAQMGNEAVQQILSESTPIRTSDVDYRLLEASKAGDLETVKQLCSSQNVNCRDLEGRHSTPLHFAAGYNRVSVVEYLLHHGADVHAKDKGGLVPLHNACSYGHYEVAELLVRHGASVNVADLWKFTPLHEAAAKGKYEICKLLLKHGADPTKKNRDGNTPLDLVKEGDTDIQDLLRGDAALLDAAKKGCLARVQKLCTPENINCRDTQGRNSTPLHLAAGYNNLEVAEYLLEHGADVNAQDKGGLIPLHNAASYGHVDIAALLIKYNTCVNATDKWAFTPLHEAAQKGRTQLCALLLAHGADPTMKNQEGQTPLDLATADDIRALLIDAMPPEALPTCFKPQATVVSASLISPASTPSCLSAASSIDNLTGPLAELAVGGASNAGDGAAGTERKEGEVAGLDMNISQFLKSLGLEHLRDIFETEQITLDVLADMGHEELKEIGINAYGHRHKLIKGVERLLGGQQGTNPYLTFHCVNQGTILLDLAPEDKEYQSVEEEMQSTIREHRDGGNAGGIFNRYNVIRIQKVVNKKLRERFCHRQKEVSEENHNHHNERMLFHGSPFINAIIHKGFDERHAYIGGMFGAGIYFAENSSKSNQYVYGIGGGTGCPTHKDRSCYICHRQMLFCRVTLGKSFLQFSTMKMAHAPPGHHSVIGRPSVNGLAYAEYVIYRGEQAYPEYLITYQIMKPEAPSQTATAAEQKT
Protocol: The potency of selected compounds according to the invention was assessed applying an modified in vitro inhibition assay. Here, the TNKS1 catalyzed NAD^+-dependent ribosylation of the enzyme itself (auto-parsylation) was detected using [^3H]-NAD^+ as substrate and applying the scintillation proximity assay (SPA) method to detect tritium-labeled, parsylated TNKS1. The intensity of the readout signal is proportional to the incorporated [^3H]-NAD^+. Inhibition of TNKS1 leads to a decreased incorporation of [^3H]-NAD^+ and consequently to a lower readout signal intensity. The concentration of a test compound which inhibits the enzyme activity by 50% (corresponds to half of the normed readout signal intensity) is reported as IC50.
The assay was conducted in a 96 well MTP format with the identical TNKS1 enzyme sample and NAD^+ sample as in the histone ribosylation assay with the following modifications: TNKS1 enzyme sample was diluted with a modified assay buffer (50 mM MES pH 7.0, 1 mM DTT, 0.01% Triton X-100) to a final concentration of 6 nM TNKS1 and 10×NAD^+ solution was diluted with the modified assay buffer (s. above) to a final 0.445×NAD^+ solution doped with 100 Bq/ul [^3H]-NAD^+[Catalog #NET443H050UC, Perkin Elmer, Waltham, Mass., USA]. Substrate solution (10 ul) was incubated with different test compound concentrations (2.5 ul in 10% DMSO in modified assay buffer) or control (2.5 ul 10% DMSO in modified assay buffer only) and enzyme (10 ul) over night at room temperature. Incorporated tritium was measured after addition of 50 ul SPA beads (1 mg/ml) [Catalog #RPNQ0095 20 mg/ml, Perkin Elmer, Waltham, Mass., USA; diluted 1:10 with Dulbecco's phosphate buffered saline, PBS Catalog #D8537, Sigma-Aldrich, Steinheim, Germany] and detection of the photon emission with a beta count plate reader [Wallac MicroBeta®, Perkin Elmer, Waltham, Mass., USA].

IC50 [nM]	SMILES
80	CNC(=O)c1nc[nH]c1C(=O)Nc1ccc(NC(=O)c2ccc(N(C)C)cc2Cl)cc1 [Example 4, N^5-(4-{[2-chloro-4-(dimethylamino)benzoyl]amino}phenyl)-N^4-methyl-1H-imidazole-4,5-dicarboxamide]
320	CNC(=O)c1nc[nH]c1C(=O)Nc1ccc(NC(=O)c2ccc(F)cc2Cl)c(C)c1 [Example 5, N^5-{4-[(2-chloro-4-fluorobenzoyl)amino]-3-methylphenyl}-N^4-methyl-1H-imidazole-4,5-dicarboxamide]
150	CNC(=O)c1nc[nH]c1C(=O)Nc1ccc(NC(=O)c2ccncc2Cl)cc1 [Example 6, N^5-{4-[(3-chloroisonicotinoyl)amino]phenyl}-N^4-methyl-1H-imidazole-4,5-dicarboxamide]
150	CNC(=O)c1nc[nH]c1C(=O)Nc1ccc(NC(=O)c2ccc(Cl)cc2Cl)cc1 [Example 9, N^5-{4-[(2,4-dichlorobenzoyl)amino]phenyl}-N^4-methyl-1H-imidazole-4,5-dicarboxamide]
290	CC(C)NC(=O)c1nc[nH]c1C(=O)Nc1ccc(NC(=O)c2ccc(F)cc2Cl)cc1 [Example 10, N^5-{4-[(2-chloro-4-fluorobenzoyl)amino]phenyl}-N^4-isopropyl-1H-imidazole-4,5-dicarboxamide]
150	CNC(=O)c1ncoc1C(=O)Nc1ccc(NC(=O)c2ccc(F)cc2Cl)cc1 [Example 11, N^5-{4-[(2-chloro-4-fluorobenzoyl)amino]phenyl}-N^4-methyl-1,3-oxazole-4,5-dicarboxamide]
20	CNC(=O)c1nc[nH]c1C(=O)Nc1ccc(NC(=O)c2ccc(F)cc2Cl)cc1 [Example 12, N^5-{4-[(2-chloro-4-fluorobenzoyl)amino]phenyl}-N^4-methyl-1H-imidazole-4,5-dicarboxamide]
30	CNC(=O)c1nc[nH]c1C(=O)Nc1ccc(NC(=O)c2ccc(F)cc2Cl)nc1 [Example 16, N^5-{6-[(2-chloro-4-fluorobenzoyl)amino]pyridin-3-yl}-N^4-methyl-1H-imidazole-4,5-dicarboxamide]
1800	CNC(=O)c1nc[nH]c1C(=O)Nc1ccc(NC(=O)c2ccccc2C)cc1 [Example 19, N^4-methyl-N^5-{4-[(2-methylbenzoyl)amino]phenyl}-1H-imidazole-4,5-dicarboxamide]
> 10000	CNC(=O)c1nc[nH]c1C(=O)Nc1ccc(NC(=O)c2ccc(F)cc2)cc1 [Example 20, N^5-{4-[(4-fluorobenzoyl)amino]phenyl}-N^4-methyl-1H-imidazole-4,5-dicarboxamide]
2600	CN(C)C(=O)c1nc[nH]c1C(=O)Nc1ccc(NC(=O)c2ccc(F)cc2Cl)cc1 [Example 24, N^5-{4-[(2-chloro-4-fluorobenzoyl)amino]phenyl}-N^4,N^4-dimethyl-1H-imidazole-4,5-dicarboxamide]
80	CNC(=O)c1nc[nH]c1C(=O)Nc1ccc(NC(=O)c2ccc(OCCN(C)C)cc2Cl)cc1 [Example 25, N^5-[4-({2-chloro-4-[2-(dimethylamino)ethoxy]benzoyl}amino)phenyl]-N^4-methyl-1H-imidazole-4,5-dicarboxamide]
1700	CNC(=O)c1nc[nH]c1C(=O)Nc1ccc(NC(=O)c2c(Cl)cccc2Cl)cc1 [Example 26, N^5-{4-[(2,6-dichlorobenzoyl)amino]phenyl}-N^4-methyl-1H-imidazole-4,5-dicarboxamide]
630	CNC(=O)c1nc[nH]c1C(=O)Nc1ccc(NC(=O)c2ccccc2Cl)cc1 [Example 27, N^5-{4-[(2-chlorobenzoyl)amino]phenyl}-N^4-methyl-1H-imidazole-4,5-dicarboxamide]
60	CNC(=O)c1nc[nH]c1C(=O)Nc1ccc(NC(=O)c2ccc(OCCN3CCN(C)CC3)cc2Cl)cc1 [Example 28, N^5-[4-({2-chloro-4-[2-(4-methylpiperazin-1-yl)ethoxy]benzoyl}amino)phenyl]-N^4-methyl-1H-imidazole-4,5-dicarboxamide]
50	O=C(Nc1ccc(NC(=O)c2[nH]cnc2C(=O)NCC(F)(F)F)cc1)c1ccc(F)cc1Cl [Example 30, N^4-{4-[(2-chloro-4-fluorobenzoyl)amino]phenyl}-N^5-(2,2,2-trifluoroethyl)-1H-imidazole-4,5-dicarboxamide]
80	CNC(=O)c1nc[nH]c1C(=O)Nc1ccc(NC(=O)c2c(F)cc(F)cc2Cl)cc1 [Example 118, N^5-{4-[(2-chloro-4,6-difluorobenzoyl)amino]phenyl}-N^4-methyl-1H-imidazole-4,5-dicarboxamide]
2	O=C(NCCN1CCCCC1)c1nc[nH]c1C(=O)Nc1ccc(NC(=O)c2c(F)cc(F)cc2Cl)cc1 [Example 119, N^5-{4-[(2-chloro-4,6-difluorobenzoyl)amino]phenyl}-N^4-[2-(piperidin-1-yl)ethyl]-1H-imidazole-4,5-dicarboxamide]
40	NC(=O)c1nc[nH]c1C(=O)Nc1ccc(NC(=O)c2ccc(F)cc2Cl)cc1 [Example 121]
950	CNC(=O)c1nc[nH]c1C(=O)Nc1ccc(NC(=O)c2ccc(O)cc2Cl)cc1 [Example 122, N^5-{4-[(2-chloro-4-hydroxybenzoyl)amino]phenyl}-N^4-methyl-1H-imidazole-4,5-dicarboxamide]
> 10000	CNC(=O)c1nc[nH]c1C(=O)Nc1ccc(NC(=O)c2cc(OCCN3CCN(C)CC3)ccc2Cl)cc1 [Example 124, N^5-[4-({2-chloro-5-[2-(4-methylpiperazin-1-yl)ethoxy]benzoyl}amino)phenyl]-N^4-methyl-1H-imidazole-4,5-dicarboxamide]
> 10000	CNC(=O)c1nc[nH]c1C(=O)Nc1ccc(NC(=O)c2cc(OCCN3CCCCC3)ccc2Cl)cc1 [Example 125, N^5-[4-({2-chloro-5-[2-(piperidin-1-yl)ethoxy]benzoyl}amino)phenyl]-N^4-methyl-1H-imidazole-4,5-dicarboxamide]
10	CC1CCN(CCNC(=O)c2nc[nH]c2C(=O)Nc2ccc(NC(=O)c3ccc(F)cc3Cl)cc2)CC1 [Example 126, N^5-{4-[(2-chloro-4-fluorobenzoyl)amino]phenyl}-N^4-[2-(4-methylpiperidin-1-yl)ethyl]-1H-imidazole-4,5-dicarboxamide]
30	COCCNC(=O)c1[nH]cnc1C(=O)Nc1ccc(NC(=O)c2ccc(F)cc2Cl)cc1 [Example 130, N^4-{4-[(2-chloro-4-fluorobenzoyl)amino]phenyl}-N^5-(2-methoxyethyl)-1H-imidazole-4,5-dicarboxamide]
> 10000	O=C(Nc1ccc(NC(=O)c2nc[nH]c2C(=O)NC2CC2)cc1)c1ccc(F)cc1 [Example 131, N^5-cyclopropyl-N^4-{4-[(4-fluorobenzoyl)amino]phenyl}-1H-imidazole-4,5-dicarboxamide]
